Legend:
L1210 cells [1] = assay: MTT cytotoxicity assay, 72 h; format: cell-based, murine; conditions: Mus musculus, 72 h; L1210, p53 wt; read-out: IC50 (mean ± SE) after 72 h continuous exposure
Description: (§1) Cells in a subconfluent phase are transferred to 96-well microtitre plates. L1210 cells are plated at a density of 1000 cells/well in 100 μl medium, while all other cell lines are plated at a density of 2000-25000 cells/well. The cells are left for 24 h prior to treatment to ensure exponential growth has been achieved, 24 h after plating (day 0), 100 μl of phosphatase inhibitor is added to each well, control wells received 100 μl of medium only. Drug exposure time is 72 h (day 3). The effect of phosphatase inhibition is tested in triplicate over a concentration range of […]−1×10^−8 M. Growth inhibitory effects are evaluated using the MTT assay and absorbance read at […]. The IC50 is the drug concentration at which cell growth is 50% inhibited based on the difference of optical density on day 0 and day 3 of drug exposure. Cytotoxicity is evaluated using a spectrophotometric assay which determines the percentage of cell growth following exposure of the cells to various concentrations of the phosphatase inhibitors for a period of 72 hours. The subsequent dose response curve is used to calculate IC50 values (the drug concentration at which cell growth is 50% inhibited).
(§2) Anti-cancer screening of the protein phosphatase inhibitors is assessed using the MTT assay. This assay determines cell viability by the ability of mitochondrial dehydrogenase to produce formazan crystals from 3-(4,5-dimethylthiazol-2-yl)-2,5-diphenyltetrazolium bromide. The viable cell number/well is directly proportional to the production of formazan, which following solubilization, can be measured spectrophotometrically (540 nm). This technique is also used by the National Cancer Institute to screen for new anticancer agents.
(§3) As described herein a number of cantharidin analogues have been synthesised and tested for their anticancer activity in nine cancer cell lines using the MTT assay after 72 h exposure. These new analogues are shown in FIG. 2 and have been designated MK-1 through to MK-9.

HT29 cells = assay: Checkpoint abrogation after 6 Gy radiation, flow cytometry; format: cell-based, human; conditions: 12 h after drug
Description: (§4) The cells are fixed in 70% ethanol and stored at −20° C. until analysis is performed (1-2 weeks). After fixing, the cells are pelleted and incubated in PBS containing propidium iodide ([…]) and RNase A (200 mg/ml) for at least 30 min at room temperature. The samples (2×10^4 events) are analysed using a Becton Dickson FACScan, fluorescence is collected in fluorescence detector 2 (FL2), filter 575/30 nm band pass. Cell cycle distribution is assessed using Cell Quest software (Becton Dickson).
(§5) The ability of the protein phosphatase inhibitors to abrogate the G1 or G2 checkpoint of the cell cycle may be determined by cell cycle analysis using flow cytometry. Briefly, asynchronous cell cultures are harvested 18 h after 6 Gy irradiation and/or 12 h incubation with the protein phosphatase inhibitor. Depending upon the p53 status of the cell line, radiation treatment alone will induce arrest in either G1 and/or G2 phase of the cell cycle.
(§6) If the protein phosphatase inhibitor abrogates the G2 checkpoint then the cells will not arrest in the G2 phase of the cell cycle and the cells will continue through the cell cycle and accumulate in the G1 phase of the cell cycle only. Similarily if the protein phosphatase inhibitors abrogates the G1 checkpoint then the cells will not arrest in the G1 phase of the cell cycle and accumulate in the G2 phase of the cell cycle only. Cell cycle analysis using propidium iodide labelling of DNA has been used extensively in our laboratory to assess the effect of specific anticancer agents that induce S-phase cell cycle arrest and apoptotic cell death (Sakoff, Ackland and Stewart, 1998). Experiments were performed on a Becton Dickinson FACScan and using Cell Quest software.
(§7) The cells were treated with 6 Gy of radiation and then treated with cantharidin 6 h later. The ability to abrogate cell cycle arrest was assessed is 12 h after the addition of the drugs.

HCT116 cells = assay: as above; format: cell-based, human; conditions: 12 h after drug
Description: as §4, §5, §6, §7

HL60 cells = assay: as above; format: cell-based, human; conditions: 12 h after drug
Description: as §4, §5, §6, §7

nine cancer cell lines = assay: MTT cytotoxicity assay, 72 h, ranges over cell line panel; format: cell-based; conditions: nine cell lines, read-out: IC50 range across all cell lines tested
Description: as §1, §2, §3

L1210 cells [2] = assay: Checkpoint abrogation after 6 Gy radiation, flow cytometry; format: cell-based, murine; conditions: 12 h after drug
Description: as §4, §5, §6, §7

C[C@@]12C(=O)OC(=O)[C@]1(C)[C@H]1CC[C@@H]2O1 [Cantharidin, exo.exo-2.3-dimethyl-7-oxobicyclo[2.2.1]heptane-2,3-dicarboxylic acid anhydride]
IC50 (L1210 cells [1]): 18 µM | Cell Cycle Distribution, G1 (HT29 cells; HT29, 1 μM, 18 h after 6Gy): 35.2 percentage of total | Cell Cycle Distribution, G2 + M (HT29 cells; HT29, 1 μM, 18 h after 6Gy): 38.2 percentage of total | Cell Cycle Distribution, S (HT29 cells; HT29, 1 μM, 18 h after 6Gy): 10.6 percentage of total | Cell Cycle Distribution, sub G (HT29 cells; HT29, 1 μM, 18 h after 6Gy): 16.6 percentage of total | Cell Cycle Distribution, G1 (HT29 cells; HT29, 5 μM, 18 h after 6Gy): 38.6 percentage of total | Cell Cycle Distribution, G2 + M (HT29 cells; HT29, 5 μM, 18 h after 6Gy): 46.3 percentage of total | Cell Cycle Distribution, S (HT29 cells; HT29, 5 μM, 18 h after 6Gy): 10.6 percentage of total | Cell Cycle Distribution, sub G (HT29 cells; HT29, 5 μM, 18 h after 6Gy): 5.3 percentage of total | Cell Cycle Distribution, G1 (HT29 cells; HT29, 10 μM, 18 h after 6Gy): 21.1 percentage of total | Cell Cycle Distribution, G2 + M (HT29 cells; HT29, 10 μM, 18 h after 6Gy): 60.8 percentage of total | Cell Cycle Distribution, S (HT29 cells; HT29, 10 μM, 18 h after 6Gy): 12.3 percentage of total | Cell Cycle Distribution, sub G (HT29 cells; HT29, 10 μM, 18 h after 6Gy): 6.4 percentage of total | Cell Cycle Distribution, G1 (HT29 cells; HT29, 50 μM, 18 h after 6Gy): 23.0 percentage of total | Cell Cycle Distribution, G2 + M (HT29 cells; HT29, 50 μM, 18 h after 6Gy): 43.1 percentage of total | Cell Cycle Distribution, S (HT29 cells; HT29, 50 μM, 18 h after 6Gy): 20.7 percentage of total | Cell Cycle Distribution, sub G (HT29 cells; HT29, 50 μM, 18 h after 6Gy): 14.7 percentage of total | Checkpoint remark (HT29 cells; HT29, 50 μM, 18 h after 6Gy): G1 abrogation | Checkpoint abrogation (HT29 cells; HT29, 6 Gy): abrogated radiation induced G1 arrest | Cell Cycle Distribution, G1 (HCT116 cells; HCT116, 1 μM, 18 h after 6Gy): 26.1 percentage of total | Cell Cycle Distribution, G2 + M (HCT116 cells; HCT116, 1 μM, 18 h after 6Gy): 58.2 percentage of total | Cell Cycle Distribution, S (HCT116 cells; HCT116, 1 μM, 18 h after 6Gy): 13.8 percentage of total | Cell Cycle Distribution, sub G (HCT116 cells; HCT116, 1 μM, 18 h after 6Gy): 4.2 percentage of total | Cell Cycle Distribution, G1 (HCT116 cells; HCT116, 5 μM, 18 h after 6Gy): 23.6 percentage of total | Cell Cycle Distribution, G2 + M (HCT116 cells; HCT116, 5 μM, 18 h after 6Gy): 63.3 percentage of total | Cell Cycle Distribution, S (HCT116 cells; HCT116, 5 μM, 18 h after 6Gy): 10.4 percentage of total | Cell Cycle Distribution, sub G (HCT116 cells; HCT116, 5 μM, 18 h after 6Gy): 4.0 percentage of total | Cell Cycle Distribution, G1 (HCT116 cells; HCT116, 10 μM, 18 h after 6Gy): 25.7 percentage of total | Cell Cycle Distribution, G2 + M (HCT116 cells; HCT116, 10 μM, 18 h after 6Gy): 62.2 percentage of total | Cell Cycle Distribution, S (HCT116 cells; HCT116, 10 μM, 18 h after 6Gy): 9.4 percentage of total | Cell Cycle Distribution, sub G (HCT116 cells; HCT116, 10 μM, 18 h after 6Gy): 4.2 percentage of total | Cell Cycle Distribution, G1 (HCT116 cells; HCT116, 50 μM, 18 h after 6Gy): 12.2 percentage of total | Cell Cycle Distribution, G2 + M (HCT116 cells; HCT116, 50 μM, 18 h after 6Gy): 63.3 percentage of total | Cell Cycle Distribution, S (HCT116 cells; HCT116, 50 μM, 18 h after 6Gy): 15.6 percentage of total | Cell Cycle Distribution, sub G (HCT116 cells; HCT116, 50 μM, 18 h after 6Gy): 12.0 percentage of total | Checkpoint remark (HCT116 cells; HCT116, 50 μM, 18 h after 6Gy): G1 abrogation | Checkpoint abrogation (HCT116 cells; HCT116, 6 Gy): abrogated radiation induced G1 arrest | Cell Cycle Distribution, G1 (HL60 cells; HL60, 1 μM, 18 h after 6Gy): 5.2 percentage of total | Cell Cycle Distribution, G2 + M (HL60 cells; HL60, 1 μM, 18 h after 6Gy): 85.8 percentage of total | Cell Cycle Distribution, S (HL60 cells; HL60, 1 μM, 18 h after 6Gy): 3.0 percentage of total | Cell Cycle Distribution, sub G (HL60 cells; HL60, 1 μM, 18 h after 6Gy): 6.2 percentage of total | Cell Cycle Distribution, G1 (HL60 cells; HL60, 5 μM, 18 h after 6Gy): 5.7 percentage of total | Cell Cycle Distribution, G2 + M (HL60 cells; HL60, 5 μM, 18 h after 6Gy): 86.8 percentage of total | Cell Cycle Distribution, S (HL60 cells; HL60, 5 μM, 18 h after 6Gy): 3.5 percentage of total | Cell Cycle Distribution, sub G (HL60 cells; HL60, 5 μM, 18 h after 6Gy): 4.4 percentage of total | Cell Cycle Distribution, G1 (HL60 cells; HL60, 10 μM, 18 h after 6Gy): 5.6 percentage of total | Cell Cycle Distribution, G2 + M (HL60 cells; HL60, 10 μM, 18 h after 6Gy): 85.1 percentage of total | Cell Cycle Distribution, S (HL60 cells; HL60, 10 μM, 18 h after 6Gy): 4.3 percentage of total | Cell Cycle Distribution, sub G (HL60 cells; HL60, 10 μM, 18 h after 6Gy): 5.3 percentage of total | Cell Cycle Distribution, G1 (HL60 cells; HL60, 50 μM, 18 h after 6Gy): 10.2 percentage of total | Cell Cycle Distribution, G2 + M (HL60 cells; HL60, 50 μM, 18 h after 6Gy): 64.9 percentage of total | Cell Cycle Distribution, S (HL60 cells; HL60, 50 μM, 18 h after 6Gy): 11.3 percentage of total | Cell Cycle Distribution, sub G (HL60 cells; HL60, 50 μM, 18 h after 6Gy): 14.3 percentage of total | Checkpoint remark (HL60 cells; HL60, 50 μM, 18 h after 6Gy): Cell Death | Checkpoint abrogation (HL60 cells; HL60, 6 Gy): abrogated radiation induced G1 arrest | IC50 (nine cancer cell lines): 6.1 to 18 µM | Cell Cycle Distribution, G1 (L1210 cells [2]; L1210, 1 μM, 18 h after 6Gy): 27.2 percentage of total | Cell Cycle Distribution, G2 + M (L1210 cells [2]; L1210, 1 μM, 18 h after 6Gy): 37.5 percentage of total | Cell Cycle Distribution, S (L1210 cells [2]; L1210, 1 μM, 18 h after 6Gy): 25.6 percentage of total | Cell Cycle Distribution, sub G1 (L1210 cells [2]; L1210, 1 μM, 18 h after 6Gy): 1.6 percentage of total | Cell Cycle Distribution, G1 (L1210 cells [2]; L1210, 5 μM, 18 h after 6Gy): 25.8 percentage of total | Cell Cycle Distribution, G2 + M (L1210 cells [2]; L1210, 5 μM, 18 h after 6Gy): 41.5 percentage of total | Cell Cycle Distribution, S (L1210 cells [2]; L1210, 5 μM, 18 h after 6Gy): 31.9 percentage of total | Cell Cycle Distribution, sub G1 (L1210 cells [2]; L1210, 5 μM, 18 h after 6Gy): 2.4 percentage of total | Cell Cycle Distribution, G1 (L1210 cells [2]; L1210, 10 μM, 18 h after 6Gy): 24.9 percentage of total | Cell Cycle Distribution, G2 + M (L1210 cells [2]; L1210, 10 μM, 18 h after 6Gy): 43.7 percentage of total | Cell Cycle Distribution, S (L1210 cells [2]; L1210, 10 μM, 18 h after 6Gy): 29.4 percentage of total | Cell Cycle Distribution, sub G1 (L1210 cells [2]; L1210, 10 μM, 18 h after 6Gy): 3.4 percentage of total | Cell Cycle Distribution, G1 (L1210 cells [2]; L1210, 50 μM, 18 h after 6Gy): 4.1 percentage of total | Cell Cycle Distribution, G2 + M (L1210 cells [2]; L1210, 50 μM, 18 h after 6Gy): 77.4 percentage of total | Cell Cycle Distribution, S (L1210 cells [2]; L1210, 50 μM, 18 h after 6Gy): 15.6 percentage of total | Cell Cycle Distribution, sub G1 (L1210 cells [2]; L1210, 50 μM, 18 h after 6Gy): 4.9 percentage of total | Checkpoint remark (L1210 cells [2]; L1210, 50 μM, 18 h after 6Gy): G1 abrogation | Checkpoint abrogation (L1210 cells [2]; L1210, 6 Gy): abrogated radiation induced G1 arrest
